Reference: ChEMBL document CHEMBL1151489, “N-(quinuclidin-3-YL)-1,8,-naphthalimides with 5-HT3 receptor antagonist and 5-HT4 receptor agonist properties” (Bioorg Med Chem Lett, 1993)

Assays:
[1] = molecular target: 5-hydroxytryptamine receptor 4 (Rattus norvegicus, UniProt Q62758); test: 5-hydroxytryptamine 4 receptor agonist activity in the rat esophageal muscularis mucosae; assay type: functional
[2] = molecular target: 5-hydroxytryptamine receptor 4 (Rattus norvegicus) (UniProt Q62758); test: lntrinsic activity relative to 5-HT receptor; assay type: functional
Sequence of 5-hydroxytryptamine receptor 4 (Rattus norvegicus) (Q62758 whole entry): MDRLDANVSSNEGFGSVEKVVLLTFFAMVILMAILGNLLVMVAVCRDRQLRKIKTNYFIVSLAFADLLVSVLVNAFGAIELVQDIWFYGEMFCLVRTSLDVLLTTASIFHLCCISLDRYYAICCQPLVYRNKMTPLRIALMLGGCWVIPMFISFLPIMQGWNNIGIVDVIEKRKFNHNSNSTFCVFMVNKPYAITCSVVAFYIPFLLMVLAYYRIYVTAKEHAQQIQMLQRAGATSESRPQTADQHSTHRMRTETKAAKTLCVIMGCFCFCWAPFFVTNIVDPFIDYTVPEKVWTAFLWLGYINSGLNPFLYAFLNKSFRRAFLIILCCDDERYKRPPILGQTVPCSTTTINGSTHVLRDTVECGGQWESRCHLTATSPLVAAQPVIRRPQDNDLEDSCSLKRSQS

[3] = molecular target: T1, Serotonin 3 (5-HT3) receptor (Rattus norvegicus, UniProt P35563+Q9JJ16); test: Binding affinity to 5-hydroxytryptamine 3 receptor was determined in rat cerebro cortical membranes using [3H]quipazine.; assay type: cell membranes
T1 sequence (P35563 whole entry): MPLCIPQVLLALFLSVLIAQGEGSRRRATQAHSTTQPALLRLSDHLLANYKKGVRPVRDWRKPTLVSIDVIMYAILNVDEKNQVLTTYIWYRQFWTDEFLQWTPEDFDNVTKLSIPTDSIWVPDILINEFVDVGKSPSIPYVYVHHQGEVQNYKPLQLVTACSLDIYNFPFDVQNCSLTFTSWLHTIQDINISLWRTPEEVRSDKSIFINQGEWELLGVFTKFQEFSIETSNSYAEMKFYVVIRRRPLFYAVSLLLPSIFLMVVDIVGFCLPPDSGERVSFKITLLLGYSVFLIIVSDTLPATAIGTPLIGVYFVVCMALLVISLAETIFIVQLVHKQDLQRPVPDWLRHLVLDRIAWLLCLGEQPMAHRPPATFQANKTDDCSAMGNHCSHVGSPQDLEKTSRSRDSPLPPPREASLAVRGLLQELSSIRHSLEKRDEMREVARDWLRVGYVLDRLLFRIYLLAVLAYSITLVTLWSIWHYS
T1 sequence (Q9JJ16 whole entry): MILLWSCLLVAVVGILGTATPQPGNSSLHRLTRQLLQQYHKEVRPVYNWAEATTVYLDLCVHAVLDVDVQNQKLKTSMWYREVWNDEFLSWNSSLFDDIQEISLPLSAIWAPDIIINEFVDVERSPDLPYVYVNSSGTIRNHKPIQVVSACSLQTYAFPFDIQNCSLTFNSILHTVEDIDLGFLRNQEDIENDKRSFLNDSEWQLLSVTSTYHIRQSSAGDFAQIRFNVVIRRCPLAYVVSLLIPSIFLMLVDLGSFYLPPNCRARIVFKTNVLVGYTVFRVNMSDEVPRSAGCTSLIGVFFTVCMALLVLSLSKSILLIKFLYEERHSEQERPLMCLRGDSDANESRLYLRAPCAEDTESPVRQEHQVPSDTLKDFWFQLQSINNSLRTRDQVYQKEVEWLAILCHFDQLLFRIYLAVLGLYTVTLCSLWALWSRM

[4] = molecular target: Serotonin 3 (5-HT3) receptor (Rattus norvegicus) (UniProt P35563+Q9JJ16); test: In vivo 5-hydroxytryptamine 3 receptor antagonist activity by antagonism of the von Bezold-Jarisch (B-J) reflex in anesthetized rats, (i.v.); assay type: functional, organism-based

Sequence of 5-hydroxytryptamine receptor 4 (Q62758 whole entry): as the sequence (Q62758 whole entry) above

Structure (SMILES) | EC50 [1] [µM] | Activity [2] | Ki [3] [µM] | Inhibitory dose (ID50) [4] [mg/kg]
COc1cc(N)c(Cl)cc1C(=O)N[C@H]1CN2CCC1CC2 [(R)ZACOPRIDE] | 0.501 | 0.9 | – | –
Nc1c(Cl)cc2c3c(cccc13)C(=O)N([C@@H]1CN3CCC1CC3)C2=O | 0.0126 | 0.8 | 0.01 | 0.077
CN1CCC(N2C(=O)c3cccc4c(N)c(Cl)cc(c34)C2=O)CC1 | 0.0316 | 0.9 | 0.0398 | 0.288
NCCc1c[nH]c2ccc(O)cc12 | – | 1 | – | –
COc1cc(N)c(Cl)cc1C(=O)N[C@@H]1CN2CCC1CC2 | 0.0631 | 0.9 | – | –
Nc1c(Cl)cc2c3c(cccc13)C(=O)N([C@H]1CN3CCC1CC3)C2=O | > 1 | – | 0.000794 | 0.0045
